Measurements taken from article PMC9381564 (Plant and Cell Physiology, 2022).

Target: T1, SoGDH (spinach L-galactose dehydrogenase) (Spinacia oleracea, UniProt Q6BDJ2)
T1 sequence (Q6BDJ2 1-322): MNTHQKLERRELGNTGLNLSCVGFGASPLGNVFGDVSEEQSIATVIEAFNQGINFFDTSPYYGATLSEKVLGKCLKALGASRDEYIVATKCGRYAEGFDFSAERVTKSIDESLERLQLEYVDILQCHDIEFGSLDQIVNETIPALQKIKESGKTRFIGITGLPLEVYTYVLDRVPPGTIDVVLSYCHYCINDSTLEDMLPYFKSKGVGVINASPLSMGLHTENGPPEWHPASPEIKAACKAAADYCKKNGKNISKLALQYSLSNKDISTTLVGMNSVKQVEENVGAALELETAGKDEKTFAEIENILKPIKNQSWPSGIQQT
Test: X-ray crystal structure, co-crystallisation, […] A
Assay type: binding
Settings: 5 mM NAD+, 1 mM L-galactose in drop, Bis-Tris pH 5.5

NC(=O)c1ccc[n+]([C@@H]2O[C@H](COP(=O)(O)OP(=O)(O)OC[C@H]3O[C@@H](n4cnc5c(N)ncnc54)[C@H](O)[C@@H]3O)[C@@H](O)[C@H]2O)c1 [NAD^+] was tested. Which “X-ray crystal structure, co-crystallisation, 1.75 A” value did it give?
Its value is “crystals of SoGDH complexed with the cofactor NAD^+ were obtained using co-crystallization”.
